Source: ChEMBL document CHEMBL6096675 (J Med Chem, 2025)
pIC50: −log10 of the molar value. Activity calls are given as the source filed them. The calls are words filed in the database; no cut-off is given here.

Legend:
[1] = Antiproliferative activity against human SMARCA4-deficient NCI-H838 cells assessed as inhibition of cell growth measured after 7 days by WST-8 assay; type: functional; settings: NCI-H838, 168 h, time 7 day
[2] = Volume of distribution of steady state in mouse at 1 mg/kg, iv; type: ADME, organism-based; settings: in vivo, read-out: Vdss
Cytochrome P450 2B6 = target: T1, Cytochrome P450 2B6 (Homo sapiens, UniProt P20813); assay: Inhibition of CYP2B6 (unknown origin); type: ADME
T1 sequence (P20813 whole entry): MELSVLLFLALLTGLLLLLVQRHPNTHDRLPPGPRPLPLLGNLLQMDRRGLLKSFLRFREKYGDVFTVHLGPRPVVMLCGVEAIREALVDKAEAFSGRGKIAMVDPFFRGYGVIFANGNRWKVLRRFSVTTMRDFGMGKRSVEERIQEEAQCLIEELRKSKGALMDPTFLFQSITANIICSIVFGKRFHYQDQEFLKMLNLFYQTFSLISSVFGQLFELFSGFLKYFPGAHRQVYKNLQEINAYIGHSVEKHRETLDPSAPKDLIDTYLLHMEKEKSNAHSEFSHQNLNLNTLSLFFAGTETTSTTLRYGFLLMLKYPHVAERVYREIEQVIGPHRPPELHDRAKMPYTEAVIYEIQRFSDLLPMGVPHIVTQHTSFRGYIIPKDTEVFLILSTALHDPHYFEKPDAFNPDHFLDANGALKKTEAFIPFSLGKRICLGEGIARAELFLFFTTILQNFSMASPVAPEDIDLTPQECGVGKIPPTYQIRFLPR

[3] = Metabolic stability in rat liver microsomes assessed as half life; type: ADME, Microsome
[4] = Antiproliferative activity against human SMARCA4-deficient NCI-H1693 cells assessed as maximal inhibition of cell growth measured after 7 days by WST-8 assay relative to control; type: functional; settings: time 7 day
[5] = Plasma concentration in SCID mouse xenografted with human NCI-H838 cells at 10 mg/kg, iv measured after 168 hrs by LC-MS/MS analysis; type: ADME, organism-based; settings: in vivo, iv, 10 mg/kg, 168 h
[6] = Toxicity in SCID mouse assessed as body weight loss at 50 mg/kg, iv twice a week; type: organism-based; settings: in vivo
[7] = Cmax in rat at 1 mg/kg, iv; type: ADME, organism-based; settings: in vivo
[8] = Plasma concentration in mouse xenografted with human H838 cells at 10 mg/kg, iv single dose measured after 168 hrs by LC-MS/MS analysis; type: ADME, organism-based, NCI-H838; settings: in vivo
[9] = Metabolic stability in human liver microsomes assessed as half life; type: ADME, Microsome
[10] = Plasma concentration in mouse xenografted with human MV4-11 cells at 30 mg/kg, iv single dose measured after 96 hrs by LC-MS/MS analysis; type: ADME, organism-based
Cytochrome P450 3A4 = Cytochrome P450 3A4 (Homo sapiens, UniProt P08684); assay: Inhibition of CYP3A4 (unknown origin) using testosterone as substrate; type: ADME
[11] = Drug uptake in tumor of mouse xenografted with human H838 cells at 10 mg/kg, iv single dose measured after 48 hrs by LC-MS/MS analysis; type: ADME, organism-based, Neoplasm, NCI-H838; settings: read-out: Drug uptake
NCI-H838 [12] = assay: In vivo anti-tumor activity against human NCI-H838 cells xenografted in SCID mouse assessed as assessed as inhibition of tumor growth at 30 mg/kg, iv treated for 3 weeks measured after treatment stop; type: functional, organism-based
NCI-H838 [13] = assay: In vivo anti-tumor activity against human NCI-H838 cells xenografted in SCID mouse assessed as assessed as inhibition of tumor growth at 10 mg/kg, iv measured after 3 weeks relative to control; type: functional; settings: NCI-H838, 504 h, read-out: TGI
[14] = Drug uptake in tumor of human NCI-H838 cells xenografted SCID mouse model at 10 mg/kg, iv measured after 48 hrs by LC-MS/MS analysis; type: ADME, organism-based, Neoplasm; settings: read-out: Drug uptake
[15] = AUC (0 to 24hrs) in rat at 1 mg/kg, iv; type: ADME, organism-based; settings: in vivo
NCI-H838 [16] = assay: In vivo anti-tumor activity against human NCI-H838 cells xenografted in SCID mouse assessed as assessed as inhibition of tumor growth at 30 mg/kg, iv measured after 3 weeks relative to control; type: functional; settings: NCI-H838, 504 h, read-out: TGI
[17] = Plasma concentration in SCID mouse xenografted with human NCI-H838 cells at 10 mg/kg, iv measured after 24 hrs by LC-MS/MS analysis; type: ADME, organism-based
[18] = Plasma concentration in mouse xenografted with human H838 cells at 10 mg/kg, iv single dose measured after 6 hrs by LC-MS/MS analysis; type: ADME, organism-based, NCI-H838
[19] = Plasma concentration in mouse xenografted with human H838 cells at 10 mg/kg, iv single dose measured after 48 hrs by LC-MS/MS analysis; type: ADME, organism-based, NCI-H838
SK-MEL-5 = assay: Antiproliferative activity against human SMARCA4-deficient SK-MEL-5 cells assessed as maximal inhibition of cell growth measured after 7 days by WST-8 assay relative to control; type: functional; settings: time 7 day
[20] = Drug uptake in tumor of mouse xenografted with human MV4-11 cells at 30 mg/kg, iv single dose measured after 168 hrs by LC-MS/MS analysis; type: ADME, organism-based, Neoplasm; settings: read-out: Drug uptake
NCI-H1792 = assay: Antiproliferative activity against human SMARCA4-wild type NCI-H1792 cells assessed as inhibition of cell growth measured after 7 days by WST-8 assay; type: functional; settings: NCI-H1792, 168 h, time 7 day
[21] = AUC (0 to 24hrs) in mouse at 1 mg/kg, iv; type: ADME, organism-based; settings: in vivo
NCI-H838 [22] = assay: In vivo anti-tumor activity against SMARCA4-deficient human NCI-H838 cells xenografted in SCID mouse assessed as assessed as inhibition of tumor growth at 10 to 30 mg/kg, iv weekly once; type: functional, organism-based; settings: dose 10-30 mg/kg
[23] = Drug uptake in tumor of mouse xenografted with human MV4-11 cells at 30 mg/kg, iv single dose measured after 24 hrs by LC-MS/MS analysis; type: ADME, organism-based, Neoplasm; settings: read-out: Drug uptake
Cytochrome P450 2D6 = Cytochrome P450 2D6 (Homo sapiens, UniProt P10635); assay: Inhibition of CYP2D6 (unknown origin); type: ADME
Cytochrome P450 2C8 = target: T2, Cytochrome P450 2C8 (Homo sapiens, UniProt P10632); assay: Inhibition of CYP2C8 (unknown origin); type: ADME
T2 sequence (P10632 whole entry): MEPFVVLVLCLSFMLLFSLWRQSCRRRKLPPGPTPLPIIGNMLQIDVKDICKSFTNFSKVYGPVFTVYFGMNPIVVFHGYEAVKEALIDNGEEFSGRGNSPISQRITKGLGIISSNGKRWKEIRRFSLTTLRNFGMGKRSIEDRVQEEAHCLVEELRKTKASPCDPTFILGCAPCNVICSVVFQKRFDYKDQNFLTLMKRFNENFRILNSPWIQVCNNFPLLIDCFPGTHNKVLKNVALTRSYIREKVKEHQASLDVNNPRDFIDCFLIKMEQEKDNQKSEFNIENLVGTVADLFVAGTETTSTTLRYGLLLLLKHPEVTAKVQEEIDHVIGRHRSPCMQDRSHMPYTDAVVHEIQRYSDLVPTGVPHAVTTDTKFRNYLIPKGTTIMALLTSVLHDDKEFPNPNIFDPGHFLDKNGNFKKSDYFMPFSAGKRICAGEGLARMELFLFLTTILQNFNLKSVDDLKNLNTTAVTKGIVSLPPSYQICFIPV

Sequence of Cytochrome P450 3A4 (P08684 whole entry): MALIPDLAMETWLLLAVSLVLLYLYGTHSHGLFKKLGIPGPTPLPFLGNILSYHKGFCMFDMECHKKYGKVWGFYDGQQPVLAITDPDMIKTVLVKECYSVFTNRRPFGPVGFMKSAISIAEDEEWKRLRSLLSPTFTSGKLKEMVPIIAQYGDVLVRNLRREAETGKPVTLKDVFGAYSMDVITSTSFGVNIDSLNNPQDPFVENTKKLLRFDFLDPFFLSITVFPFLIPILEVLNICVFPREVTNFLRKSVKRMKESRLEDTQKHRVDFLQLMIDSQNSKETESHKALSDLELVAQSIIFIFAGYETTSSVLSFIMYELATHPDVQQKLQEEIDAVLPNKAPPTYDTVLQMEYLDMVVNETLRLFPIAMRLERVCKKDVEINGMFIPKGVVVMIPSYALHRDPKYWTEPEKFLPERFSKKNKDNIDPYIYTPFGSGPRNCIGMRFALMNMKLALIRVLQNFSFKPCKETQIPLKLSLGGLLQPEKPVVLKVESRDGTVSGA
Sequence of Cytochrome P450 2D6 (P10635 whole entry): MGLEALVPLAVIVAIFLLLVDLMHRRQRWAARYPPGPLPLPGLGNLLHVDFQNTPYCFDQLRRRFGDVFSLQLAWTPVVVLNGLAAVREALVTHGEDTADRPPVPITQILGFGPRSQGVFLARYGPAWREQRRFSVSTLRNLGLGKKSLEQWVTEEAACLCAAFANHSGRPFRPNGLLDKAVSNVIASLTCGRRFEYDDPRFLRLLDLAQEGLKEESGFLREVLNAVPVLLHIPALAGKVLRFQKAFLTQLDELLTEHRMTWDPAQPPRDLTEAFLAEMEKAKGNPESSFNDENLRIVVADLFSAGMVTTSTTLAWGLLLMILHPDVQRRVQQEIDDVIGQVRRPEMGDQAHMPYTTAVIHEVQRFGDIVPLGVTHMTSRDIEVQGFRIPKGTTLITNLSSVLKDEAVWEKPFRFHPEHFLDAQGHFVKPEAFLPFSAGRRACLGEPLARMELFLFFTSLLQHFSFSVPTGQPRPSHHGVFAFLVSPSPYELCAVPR

Cc1ncsc1-c1ccc([C@H](CN2CCOCC2)NC(=O)[C@@H]2C[C@@H](O)CN2C(=O)[C@@H](n2cc([C@H]3CC[C@H](CN4CCC(c5ccc6c(c5)-n5c(nc(=O)c7c(Cl)cccc75)C65CCCCC5)CC4)CC3)nn2)C(C)(C)C)cc1
GI50 [1]: 0.0095 µM | Vd [2]: 1.9 L/kg | pIC50 (Cytochrome P450 2B6): < 4.00 | half-life [3]: > 1 h | Imax [4]: 85% | Cp [5]: Below_limit_of_detection | Activity [6]: Non-toxic | Cmax [7]: 2420 ng/mL | Cp [8]: Below_limit_of_detection | half-life [9]: > 1 h | concentration at 96 h [10]: 56 ng/mL | pIC50 (Cytochrome P450 3A4): < 4.00 | concentration at 48 h [11]: 437 ng/mL | Activity (NCI-H838 [12]): inactive | inhibition in vivo at 10 mg/kg (NCI-H838 [13]): 87% | concentration at 48 h [14]: 437 ng/mL | AUC(0-t) [15]: 753 ng·h/mL | inhibition in vivo at 30 mg/kg (NCI-H838 [16]): 91% | concentration at 24 h [17]: 50 ng/mL | concentration at 6 h [18]: 585 ng/mL | concentration at 48 h [19]: 15 ng/mL | Imax (SK-MEL-5): 95% | concentration at 168 h [20]: 932 ng/mL | GI50 (NCI-H1792): > 10 µM | AUC(0-t) [21]: 1740 ng·h/mL | Activity (NCI-H838 [22]): Active | concentration at 24 h [23]: 2290 ng/mL | pIC50 (Cytochrome P450 2D6): < 4.00 | pIC50 (Cytochrome P450 2C8): < 4.00
